Source: patent publication US20050143336A1 (priority 2003, published 2005)
“Also recorded” adds a separate entry of the source. Like-named read-outs stand apart in the source and are kept apart here.

Columns and labels:
[1] = test system: FUS1 protein expression in the lungs; details: naproxen 15 mg/kg orally 2 hour prior to i.v. DOTAP:Chol-FUS1 complex vs complex alone
Experimental: In vivo treatment of immunocompetent animals by intravenous injection of DOTAP:Cholesterol-FUS1 complex. Female C3H mice were divided into 3 groups (n=12/group). […] Lung tissues were later homogenized, and total protein lysates prepared. Protein concentration in the lysate were determined by the BCA method and analyzed for FUS1 expression by western blot analysis. FUS1 protein was detected using a anti-FUS1 antibody. Untreated animals served as controls.

[2] = test system: proinflammatory cytokines (TNF, IL-1, IL-6, IFN-γ); assay type: in vivo, C3H mice
Experimental: In vivo treatment of immunocompetent animals by intravenous injection of DOTAP:Cholesterol-FUS1 complex. Female C3H mice were divided into 2 groups (n=15/group). […] Complexes were injected intravenously via the tail vein using a total volume of 200 μl. […] Blood from animals in all groups were collected at 2, 4, 6, and 15 h after injection of liposome-DNA complex, and analyzed for proinflammatory cytokines (TNF, IL-1, IL-6, IFN-γ) by ELISA (R&D Systems).

[3] = test system: p38MAPK, pJNK, p44/42MAPK, pATF-2, pc-Jun, COX-2 in MRC-9 fibroblast cells; assay: Inflammation-associated signaling molecules in MRC-9 cells transfected with FUS1-nanoparticles (western blot); assay type: cell-based, Human; details: naproxen 0.5 mM prior to FUS1-nanoparticles
Experimental: (§1) In vitro experiments. To determine the effect of FUS1-nanoparticles on the activation of signaling molecules associated with inflammation, MRC-9 fibroblast cells were seeded in six-well plates (5×10^5 cells/well) and incubated overnight at 37° C. and 5% CO2. […] Two-three hours after treatment, cells were transfected with FUS1-nanoparticles (2.5 μg DNA) in 0.2% serum medium. Cells were harvested at different time-points (2 h, 4 h, 15 h) after transfection, washed, and cell lysates prepared as previously described (Ramesh et al., 2001a). Untransfected cells treated with PBS served as control in these experiments. Cell lysates were subjected to western blotting analysis and probed with various antibodies as previously described (Ramesh et al., 2001b; Ito et al., 2003). In all the experiments, β-actin was detected using anti-β-actin antibody (Sigma Chemicals, St. Louis, Mo.) as a measure of internal loading control.

luciferase expression = assay: Luciferase transgene expression in cells transfected with luc-nanoparticles; assay type: cell-based, Human; details: naproxen prior to luc-nanoparticles; 2 h, 4 h, 15 h
Experimental: To determine the effect of inhibitors on transgene expression, cells were transfected with a marker gene, luciferase (luc), complexed with DOTAP:Chol. nanoparticles (luc-nanopartilces). All other experimental conditions were the same as described above. Luciferase expression was determined using the luciferase assay kit (Promega, Madison, Wis.) as previously described (Ramesh et al., 2001b). Luciferase expression was expressed as relative light units per mg of protein (RLU/mg). Assays were performed in triplicates. Experiments were performed two times and the results represented as the average of two separate experiments.

[4] = test system: p38MAPK, pJNK, p44/42MAPK, pATF2, pc-JUN, COX-2 in lung tissues; assay: Inflammation-associated signaling molecules in lung tissues after FUS1-nanoparticles (western blot); assay type: in vivo, C3H mice; details: naproxen prior to FUS1-nanoparticles
[5] = test system: serum TNF-α, IL-6, Il-1α and IFN-γ; assay: Serum cytokine profile after FUS1-nanoparticle with or without naproxen (ELISA); assay type: in vivo, C3H mice; details: naproxen 15 mg/kg orally pretreatment
Experimental: (§2) Cytokine profiles, Organ toxicity and Signalling molecules in C3H mice. To determine the cytokine profile, organ toxicity, signaling molecules responsible for inflammation, experiments were performed using immunocompetent female C3H mice. […] The amount of FUS1 plasmid injected was 100 μg. Serum and organ cytokine levels were determined by ELISA for murine TNF-α and murine Il-6. At indicated times after injection, blood was obtained via aspiration after right heart puncture. The blood was allowed to stand for 4 hours at 4° C. and then was centrifuged twice at 15,000 g for 10 minutes at 4° C. The supernatants (serum) were kept at −80° C. until used. Cytokine concentrations were quantified using specific ELISA kits (R&D systems) according to manufacturer's instructions. Organs were collected at 2, 4, and 15 h and were snap-frozen in liquid nitrogen and stored at […] until time of ELISA and Western blot analysis. At the time of ELISA, organs were slowly thawed on ice. The lung, liver and spleen was homogenized in 750 μl PBS containing a cocktail of protease inhibitors using a tissue homogenizer. The cytoplasmic fraction was isolated as the supernatant fraction following centrifugation at 15,000 g for 20 min at 4° C. The supernatant was used for the determination of TNF-α and IL-6 were quantitated by ELISA kits purchased from R&D Sytems and Biosource.fraction.

[6] = test system: TNF-α, IL-6 in lungs, liver and spleen; assay: Organ cytokine levels (lungs, liver, spleen) after FUS1-nanoparticle with or without naproxen (ELISA); assay type: in vivo, C3H mice; details: naproxen 15 mg/kg orally pretreatment
Experimental: as §2

[7] = test system: NFκB and STAT3 DNA binding; assay: Electrophoretic mobility shift assay of lung nuclear extracts for NFκB and STAT3; assay type: in vivo, C3H mice; details: in the presence of naproxen
Experimental: Electrophoretic mobility shift assay. […] Santa Cruz Biotechnology, Santa Cruz, Calif.) and NF-κB consensus oligonucleotide […] These probes were end-labelled with [γ-^32P]ATP(3000 Ci/mmol at 10 mCi/ml; Amersham Biosciences, Sunnyvale, Calif.). DNA binding reactions were performed at room temperature in a 25-μl reaction mixture containing 6-μl of nuclear extract and 5 μl of 5× binding buffer (20% (w/v) Ficoll, 50 mM HEPES (pH 7.9), 5 mM EDTA, 5 mM DTT). […] Samples were electrophoresed through 5.5% polyacrylamide gels in 0.5×TBE at 160 V for 3 h, dried under vacuum, and exposed to X-ray film after overnight expose with hyperfilm at -80° C. The gel was then dried and subjected to autoradiography. […] The minced tissue was homogenized using a Dounce homogenizer and centrifuged at 14,000 rpm at 4° C. for 10 min. […] The supernatant (nuclear extract) was collected and stored at -80° C. until use. The protein concentrationm was measured by the method of Bradford with BSA as the standard. […] Briefly, Double-stranded oligonucleotides consensus NFκB (Promega) were end-labelled with [γ-^32P]-ATP using T4 polynucleotide kinase. […] The bands were visualized by autoradiography.

[8] = test system: TNF-α, IL-6 and PGE2 production in RAW 264.7 cells; assay: Inflammatory cytokines production assay in RAW 264.7 macrophage cells; assay type: cell-based, Mouse; details: RAW 264.7, naproxen 0.5 mM before FUS1-nanoparticle
Experimental: The following day, tissue culture medium was replaced with fresh 0.2% medium and incubated overnight at 37° C. and 5% CO2. […] Assay was performed according to manufacturer's protocol.

[9] = test system: p38MAPK, JNK, p44/42 MAPK, ATF2, cJun, STAT3, COX-2 in RAW 264.7 cells; assay: Signaling molecules in RAW 264.7 macrophage cells transfected with FUS1-nanoparticle (western blot); assay type: cell-based, Mouse
Experimental: as §1, with “of nanoparticle-FUS1 complex” for “of FUS1-nanoparticles”, “inflammation, RAW macrophage” for “inflammation, MRC-9 fibroblast”, “plates (1×10^6” for “plates (5×10^5”, “cells/well) and incubated overnight at 37° C. and 5% CO2. The following day, tissue culture medium was replaced with fresh 0.2% medium” for “cells/well)”, “with FUS1-nanoparticle” for “with FUS1-nanoparticles”, “described (Ito” for “described (Ramesh et al., 2001b; Ito”

[10] = test system: luciferase expression in RAW 264.7 cells; details: RAW 264.7, 0.5 mM naproxen pretreatment
Experimental: To determine the effect of inhibitors on transgene expression, cells were transfected with a marker gene, luciferase (luc), complexed with nanoparticle. All other experimental conditions were the same as described above. […] Luciferase expression was expressed as relative light units per mg of protein (RLU/mg). Assays were performed in triplicates. Experiments were performed two times and the results represented as the average of two separate experiments.

## COc1ccc2cc([C@H](C)C(=O)O)ccc2c1 [Naproxen, naproxen]
[1]
  FUS1 protein expression in the lungs: No significant differences
[2]; naproxen 15 mg/kg 2 hour before DOTAP:Chol-FUS1 complex (100 μg DNA) i.v., serum
  reduction in all of the cytokine levels: 50%
[2]; naproxen 15 mg/kg before complex
  proinflammatory cytokine production, effect of naproxen: significant suppression of proinflammatory cytokine production
[3]
  expression of downstream substrates pATF-2, pc-Jun and COX-2: decreased expression
  expression of p38MAPK, pJNK and p44/42MAPK: significant inhibition
Luciferase expression
  luciferase activity (RLU/mg protein), naproxen treated vs untreated: greatly increased; also recorded: slight increase in luciferase activity
[4]
  activation of signaling molecules in lung: markedly suppressed
[5]
  serum TNF-α, IL-6, Il-1α and IFN-γ levels induced by FUS1-nanoparticle: significantly inhibited
[6]
  TNF-α, IL-6 levels in lungs, liver and spleen: significantly inhibited
[7]
  activation of NFκB and STAT3 in lung: suppressed
[8]
  production of TNF-α, IL-6 and PGE2: suppressed
[9]; RAW 264.7, 0.5 mM naproxen pretreatment, 2 and 4 h
  p38MAPK, pJNK, pATF-2 and pcjun: significantly inhibited
[9]; RAW 264.7, 0.5 mM naproxen, 4 and 15 h
  phosphorylation of STAT 3: inhibited
[9]; RAW 264.7, 0.5 mM naproxen, 4 h
  expression of COX-2: inhibited
C3H mice; naproxen 5 mg/kg orally 2 to 3 h before FUS1-nanoparticle (100 μg FUS1)
  percentage of survival: 50%
C3H mice; naproxen 15 mg/kg orally 2 to 3 h before FUS1-nanoparticle (100 μg FUS1)
  percentage of survival: 100%
[10]
  transgene (luciferase) expression: did not inhibit transgene (luciferase) expression but rather slightly enhanced the transgene expression over time
